# Experimental data from patent US20070286888A1, “Additive For Feeds And Feed Containing The Same” (Kabushiki Kaisha Yakult Honsha, priority 2004, published 2007).
# System: L. johnsonii YIT0482 strain
# Test: Antibiotic resistance test, L. johnsonii
# Type: cell-based, Lactobacillus johnsonii
# Method: The 11 antibiotics shown in Table 3 were separately added at concentrations of 100, 10, 1, 0.1, and 0 μg/ml, to thereby prepare MRS agar mediums (manufactured by Difco). Subsequently, cell culture solutions of the five bacterial stains (A) and (B) obtained in Production Example 1 (10 μl each) were separately inoculated into the respective antibiotic-containing MRS mediums (the cell number of each bacterial strain: about 1·10^8 cells/ml), followed by smear culture at 37° C. for 48 hours under anaerobic conditions. The proliferated bacteria were evaluated with the naked eye, and the […] for each antibiotic (μg/ml) were calculated.
substance,measurement,value
Gentamicin,Resistance of the strain to the antibiotic (in words),excellent specific resistance
